Assay results as given in article PMC12115342, “Preparation and Evaluation of Tadalafil-Loaded Nanoemulgel for Transdermal Delivery in Cold-Induced Vasoconstriction: A Potential Therapy for Raynaud’s Phenomenon” (Pharmaceutics, 2025).
In brackets after ≈: the same amount, converted by molar mass. Read-outs that look alike come from different tables or passages of the source. Values belong to the compound of their own block, whether it stands above or below them.

Key:
[1] = cited from earlier work
[2] = cited from earlier work; remark: listed apart in the source
[3] = design: method as in doi:10.1016/j.jddst.2022.103166; details: cited from earlier work
[4] = Equilibrium solubility of TDL in oils, surfactants and cosurfactants; type: physicochemical
Protocol: The equilibrium solubility of TDL in selected oils was measured by adding an excess quantity of the drug to 1 mL of oils (Miglyol® 812 N, Miglyol® 840, Miglyol® 829, triacetin, isopropyl myristate, castor oil, oleic acid, cinnamon oil, N-methyl pyrrolidone) separately in 1.5 mL stoppered glass vials and mixed by a vortex mixer. Samples were further placed at room temperature (25 ± 1 °C) on a shaker (Incu-Shaker, Benchmark Scientific, Edison, NJ, USA) at 180 rpm for 72 h. The mixture was further centrifuged for 15 min at 3000 rpm. The upper supernatant was removed, and the amount of drug was determined using UV analyzer (Jenway, Staffs, UK) at a lambda max of 284 nm. The data presented in Table 1 are the mean values and standard deviations (SDs) for each oil sample, based on three replicates.
The solubility screening of TDL in various surfactants (Tween 80, Span 80, Cremophor RH 40, PEG-400, propylene glycol, isopropyl alcohol, and Transcutol) was performed following the same procedure as the oil screening. The results presented in the article are the mean values and standard deviations (SDs) for surfactant and cosurfactant samples, based on three replicates.

- solubility at 72 h ([4]; 25 °C, oil or lipid, thermodynamic from solid, in Castor oil, 25 ± 1 °C, 72 h): 450 ± 30 µg/mL (≈ 1160 µM)
- solubility at 72 h ([4]; 25 °C, oil or lipid, thermodynamic from solid, in Cinnamon oil, 25 ± 1 °C, 72 h): 53600 ± 2580 µg/mL (≈ 138000 µM)
- solubility at 72 h ([4]; 25 °C, oil or lipid, thermodynamic from solid, in Miglyol 812N, 25 ± 1 °C, 72 h): 330 ± 10 µg/mL (≈ 847 µM)
- solubility at 72 h ([4]; 25 °C, oil or lipid, thermodynamic from solid, in Miglyol 829, 25 ± 1 °C, 72 h): 910 ± 140 µg/mL (≈ 2340 µM)
- solubility at 72 h ([4]; 25 °C, oil or lipid, thermodynamic from solid, in Miglyol 840, 25 ± 1 °C, 72 h): 290 ± 10 µg/mL (≈ 745 µM)
- solubility at 72 h ([4]; 25 °C, oil or lipid, thermodynamic from solid, in Oleic acid, 25 ± 1 °C, 72 h): 190 ± 10 µg/mL (≈ 488 µM)
- solubility at 72 h ([4]; 25 °C, oil or lipid, thermodynamic from solid, in Triacetin, 25 ± 1 °C, 72 h): 3830 ± 70 µg/mL (≈ 9840 µM)
- solubility at 72 h ([4]; 25 °C, organic solvent or mixture, thermodynamic from solid, in Isopropyl alcohol): 510 ± 10 µg/mL (≈ 1310 µM)
- solubility at 72 h ([4]; 25 °C, organic solvent or mixture, thermodynamic from solid, in PEG-400): 14000 ± 1010 µg/mL (≈ 35900 µM)
- solubility at 72 h ([4]; 25 °C, organic solvent or mixture, thermodynamic from solid, in Propylene glycol): 840 ± 50 µg/mL (≈ 2160 µM)
- solubility at 72 h ([4]; 25 °C, organic solvent or mixture, thermodynamic from solid, in Transcutol): 33400 ± 1320 µg/mL (≈ 85700 µM)
- solubility at 72 h ([4]; 25 °C, thermodynamic from solid, in Cremophor RH 40): 27600 ± 1230 µg/mL (≈ 70800 µM)
- solubility at 72 h ([4]; 25 °C, thermodynamic from solid, in N-methyl pyrrolidone, 25 ± 1 °C, 72 h): 325000 ± 4560 µg/mL (≈ 835000 µM)
- solubility at 72 h ([4]; 25 °C, thermodynamic from solid, in Span 80): 170 ± 30 µg/mL (≈ 437 µM)
- solubility at 72 h ([4]; 25 °C, thermodynamic from solid, in Tween 80): 280 ± 10 µg/mL (≈ 719 µM)
- solubility at 72 h ([4]; in Cremophor RH 40): ~27600 µg/mL (≈ 70800 µM)
- solubility at 72 h ([4]; in Transcutol): ~33400 µg/mL (≈ 85700 µM)
Compound: CN1CC(=O)N2[C@H](c3ccc4c(c3)OCO4)c3[nH]c4ccccc4c3C[C@@H]2C1=O [Tadalafil]
- half-life [1]: 15 to 17 h
- water solubility [2]: 3.2 µg/mL (≈ 8.22 µM)
- solubility in water ([2]; lower literature value): 0.73 µg/mL (≈ 1.87 µM)
- solubility in water ([2]; upper literature value): 3.48 µg/mL (≈ 8.94 µM)
- log p [3]: 2.89

Compound: CCCc1nn(C)c2c(=O)[nH]c(-c3cc(S(=O)(=O)N4CCN(C)CC4)ccc3OCC)nc12 [sildenafil]
- half-life [1]: 3.8 h
